# Measurements published in article PMC6469618 (Environmental Science and Pollution Research International, 2019).
# Values joined by “and” are separate entries in the source; they are usually repeats but may differ in a detail not shown here. Identical values can stand only once.
# Key:
# water louse = settings: naturalistic pond experiment; ref Lagesson et al. 2016; cited from earlier work
# zebrafish = test system: zebrafish; parameters: method as in Levin et al. 2011; settings: zebrafish exposed to 50 mg/L as embryos; ref Levin et al. 2011; cited from earlier work
# rhesus macaque = settings: oral administration, ref Gualtieri et al. 1982, Doerge et al. 2000; cited from earlier work
# in vivo [1] = settings: nine-spine stickleback (Pungitius pungitius), 187 ng/L
# Description: (§5) Nine-spine stickleback were collected using umbrella traps from ponds in Röbäck, Sweden, in July 2017. Fish were housed in a large, aerated, ground water flow-through tank (1500 L) until the start of the experiment. Fish were fed frozen chironomid larvae until satiation once daily. Water louse were collected using sweep nets from Djupsundsbäcken near Holmsund, Sweden, in January 2018. Water louse were kept in aerated containers with detritus (predominately alder leaf litter) until the start of the experiment.
# (§6) Stickleback and water louse were exposed to 187 ng/L (nominal concentration) methylphenidate at two temperature treatments: 10 °C (in a climate chamber) and 20 °C (ambient room temperature). Both exposures were maintained at the same light cycle used in study 1. Organisms were exposed under static conditions using three replicate glass aquaria filled with 20 L water. The aquaria were equipped with an airstone and two ceramic clay pots for shelter in each temperature treatment. Fish were exposed in two tanks, while water louse were exposed separately in the remaining tank. Water from each tank was sampled at 0 min (immediately after dosing), 15 min, 30 min, 60 min, 4 h, 8 h, 24 h, 3 days, 5 days, 7 days, 9 days, 10 days, 11 days, 12 days, and 13 days. Three to six water louse and three to six fish were sampled at each of the following time points: 60 min, 4 h, 8 h, 24 h, 3 days, 5 days, 7 days, 9 days, 10 days, 11 days, 12 days, and 13 days. Fish were euthanized via cerebral concussion and spinal severance. Water quality measures of pH (Merck pH Universal Indicator Strips), dissolved oxygen, and temperature (YSI Pro DO Series) were verified in the exposure tanks on the final days of sampling. For the low (10 °C) and high (20 °C) temperature rooms, respectively, water temperature was (mean ± s.d.) 10.03 ± 0.32 °C and 17.07 ± 0.21 °C; dissolved oxygen was 14.40 ± 0.27 mg/L and 12.30 ± 0.30 mg/L; and there were no changes in pH (7 ± 0, for both temperatures).
# (§7) Immediately after sampling, all water and organisms sampled were frozen at − 20 °C until further processing. Muscle tissue (mean ± s.d. 0.09 ± 0.02 g; range 0.02–0.13 g) was dissected from each stickleback by taking a section of the dorsal axial muscle. Water louse collected from each temperature treatment (10 °C and 20 °C) on each sampling day were pooled due to low sample weight before extracting whole-body tissue (0.05 ± 0.01 g; range 0.03–0.07 g). However, when enough tissue was available, multiple water louse samples were analysed. To each sample, 5 ng (50 μL) of the internal standard methylphenidate-D9 (Cerilliant, USA; in methanol, HPLC-grade, Fisher Chemical, Loughborough, UK) was added. For both stickleback and water louse, tissues were extracted using 1.5 ml acetonitrile (HPLC-grade, Fisher Chemical, Loughborough, UK) repeated twice (based on the method used by Brodin et al. [2013]; McCallum et al. [2017], [2018]). The samples were homogenized and extracted for 4 min at 42,000 oscillations per minute (Mini Beadbeater, Biospec. Bartlesville, USA) with zirconium beads and then centrifuged the samples at 17,500 g for 10 min (Beckman Coulter Microfuge 22R Centrifuge). This protocol was used for both eluent mixtures, and the supernatants were combined. The combined supernatants were evaporated to 20 μl and the sample was reconstituted in 100 μl methanol (HPLC-grade, Fisher Chemical, Loughborough, UK). […]
# zebrafish (Danio rerio) = test system: zebrafish (Danio rerio); parameters: method as in Endres et al. 2017; settings: stressed zebrafish; environmentally relevant concentrations; ref Endres et al. 2017; cited from earlier work
# in vivo [2] = settings: water louse (Asellus aquaticus), 187 ng/L
# Description: as §5, §6
# (§8) Immediately after sampling, all water and organisms sampled were frozen at − 20 °C until further processing. Muscle tissue (mean ± s.d. 0.09 ± 0.02 g; range 0.02–0.13 g) was dissected from each stickleback by taking a section of the dorsal axial muscle. Water louse collected from each temperature treatment (10 °C and 20 °C) on each sampling day were pooled due to low sample weight before extracting whole-body tissue (0.05 ± 0.01 g; range 0.03–0.07 g). However, when enough tissue was available, multiple water louse samples were analysed. To each sample, 5 ng (50 μL) of the internal standard methylphenidate-D9 (Cerilliant, USA; in methanol, HPLC-grade, Fisher Chemical, Loughborough, UK) was added. For both stickleback and water louse, tissues were extracted using 1.5 ml acetonitrile (HPLC-grade, Fisher Chemical, Loughborough, UK) repeated twice (based on the method used by Brodin et al. [2013]; McCallum et al. [2017], [2018]). The samples were homogenized and extracted for 4 min at 42,000 oscillations per minute (Mini Beadbeater, Biospec. Bartlesville, USA) with zirconium beads and then centrifuged the samples at 17,500 g for 10 min (Beckman Coulter Microfuge 22R Centrifuge). This protocol was used for both eluent mixtures, and the supernatants were combined. The combined supernatants were evaporated to 20 μl and the sample was reconstituted in 100 μl methanol (HPLC-grade, Fisher Chemical, Loughborough, UK).
# [3] = Study 2: static water + biota, concentrations in the water column; settings: for Water concentration, measured end / Water concentration, measured start / half-life at 187 ng/L / Formation time of ritalinic acid in water: static + biota; for Water concentration, measured end: final sampling day; for Water concentration, measured end / Water concentration, measured start: nominal 187 ng/L methylphenidate, mean ± s.d.; for Water concentration, measured start: immediately after dosing, Ntanks = 3; for half-life at 187 ng/L: aquarium water with biota (stickleback or water louse), pH 7, Half-life of methylphenidate in water
# Experimental: Stickleback and water louse were exposed to 187 ng/L (nominal concentration) methylphenidate at two temperature treatments: 10 °C (in a climate chamber) and 20 °C (ambient room temperature). Both exposures were maintained at the same light cycle used in study 1. Organisms were exposed under static conditions using three replicate glass aquaria filled with 20 L water. The aquaria were equipped with an airstone and two ceramic clay pots for shelter in each temperature treatment. Fish were exposed in two tanks, while water louse were exposed separately in the remaining tank. Water from each tank was sampled at 0 min (immediately after dosing), 15 min, 30 min, 60 min, 4 h, 8 h, 24 h, 3 days, 5 days, 7 days, 9 days, 10 days, 11 days, 12 days, and 13 days. Three to six water louse and three to six fish were sampled at each of the following time points: 60 min, 4 h, 8 h, 24 h, 3 days, 5 days, 7 days, 9 days, 10 days, 11 days, 12 days, and 13 days. Fish were euthanized via cerebral concussion and spinal severance. Water quality measures of pH (Merck pH Universal Indicator Strips), dissolved oxygen, and temperature (YSI Pro DO Series) were verified in the exposure tanks on the final days of sampling.
# (§1) Fifty microlitres of methylphenidate-D9 (500 ng/L) was added to 10-ml aliquots of the aqueous samples, filtered (0.45 μm, Filtropur S, Sarstedt, N~umbrecht, Germany), and acidified with 10 μL formic acid (0.1% v/v, Merck KGaA, Darmstadt, Germany) to a pH of 2.7.
# (§2) All of the samples were injected to an EQuan MAX Plus LC-Quantiva triple quadrupole MS/MS (Thermo Scientific, San Jose, USA). A 10-μL injection volume was used for stickleback/louse extracts and the calibration curve. For the aqueous samples, and the corresponding calibration curve, a 1-mL injection volume was used and preconcentrated the analytes on an online-connected Oasis HLB column (2.1 × 20 mm, 15 μm Waters, Milford, USA) using column switching (70 s transfer time and 180 s elution time). Milli-Q ultra-pure water (Millipore) and methanol (Lichrosolv, Hypergrade, Merck) were used as mobile phases (both containing 0.1% formic acid (Suprapur, Merck KGaA), v/v) together with Hypersil GOLD columns (Thermo Scientific) as stationary phases: guard (20 × 2.1 mm, 3 μm) and analytical (50 × 2.1 mm, 3 μm). The flow rate was kept at 350 μL/min, and we used two linear gradients. The gradient for the stickleback/louse extracts were as follows: 0–2 min, methanol 2%; 2–4 min, methanol 2–100%; 4–6 min, methanol 100%; and 6.01–7.5 min, methanol 2%. For the aqueous samples, the gradient was 0–2 min, methanol 2%; 2–4.75 min, methanol 2–100%; 4.75–7 min, methanol 100%; and 7.01–9 min, methanol 2%.
# (§3) Positive polarity and a heated electrospray at 338 °C, an ion transfer tube temperature at 350 °C, and a spray voltage at 3.5 kV were used. […] See supplementary materials for QA/QC data.
# (§4) All analyses were conducted in R (version: 3.5.0; R Core Team [2018]). […] Welch’s two-sample t tests were used to analyse whether methylphenidate degradation in the water column was impacted by temperature treatment. […] Degradation/formation rate, kd, is the slope given by a linear regression analysis. […] Relative tissue uptake was calculated at each sampling point.
# [4] = Study 1: static water only, stability of methylphenidate and breakdown to ritalinic acid; settings: for Water concentration, measured end: final sampling day; for Water concentration, measured end / Water concentration, measured start: nominal 1870 ng/L methylphenidate, Ntanks = 1; for Water concentration, measured start: immediately after dosing
# Experimental: A total of 1870 ng/L (nominal concentration) of methylphenidate (1 mL of the stock solution) was added to a glass aquarium filled with 20 L of ground water. The tank was aerated and kept at 20 °C (ambient room temperature). Water was sampled at 0 min (immediately after dosing), 5 min, 15 min, 45 min, 90 min, 4 h, 10 h, 24 h, 2 days, 3 days, 4 days, 5 days, 7 days, and 12 days. This exposure was conducted in a windowless room with a light-dark cycle of 13L:11D.
# as §1, §2, §3, §4
# humans = settings: standard dose (18 mg); ref Faraj et al. 1974; Concerta Prescribing Information 2013; cited from earlier work
# human = settings: oral administration, ref Gualtieri et al. 1982, Doerge et al. 2000; cited from earlier work
# [5] = test system: guppies (Poecilia reticulata); parameters: method as in De Serrano et al. 2016; settings: adult guppies exposed to 250 ng/L; ref De Serrano et al. 2016; cited from earlier work
# [6] = test system: nine-spine stickleback (Pungitius pungitius); assay: Study 2: uptake in muscle tissue of stickleback; settings: for Start relative tissue concentration (Cb/Cw): 60 min after dosing
# Description: as §5, §6, §7
# [7] = ref SciFinder; cited from earlier work
# [8] = test system: water louse (Asellus aquaticus); assay: Study 2: uptake in whole-body tissue of water louse; settings: for Start relative tissue concentration (Cb/Cw): 60 min after dosing; for End relative tissue concentration (Cb/Cw): final sampling day
# Description: as §5, §6, §8
structure (smiles),measurement,setting,value
OCCOCCN1CCN(C(c2ccccc2)c2ccc(Cl)cc2)CC1 (stereo not drawn) [hydroxyzine],Bioconcentration in water louse compared to European perch (Perca fluviatilis),water louse,higher levels
COC(=O)C(c1ccccc1)C1CCCCN1 (stereo not drawn) [methylphenidate],Effect on anxiety behaviours,zebrafish,Reductions in anxiety behaviours
same,Time of peak in plasma,rhesus macaque,1 to 4 h
same,concentration at 60 min,in vivo [1],0.18 ng/g
same,"Effect on anxiety-like behaviours (e.g., freezing, hiding)",zebrafish (Danio rerio),inhibited anxiety-like behaviours
same,concentration at 60 min,in vivo [2],0.2 ng/g
same,concentration at 13 days,in vivo [2],0.1 ng/g
same,"Water concentration, measured end",[3]; 10 °C,28 ± 4 ng/L
same,"Water concentration, measured start",[3]; 10 °C,192 ± 28 ng/L
same,"Water concentration, measured end",[3]; 20 °C,2 ± 1 ng/L
same,"Water concentration, measured start",[3]; 20 °C,205 ± 19 ng/L
same,half-life at 187 ng/L,[3]; 10 °C,122 h
same,half-life at 187 ng/L,[3]; 20 °C,47 h
same,"Water concentration, measured end","[4]; 20 °C, static water only",7 ng/L
same,"Water concentration, measured start","[4]; 20 °C, static water only",1660 ng/L
same,half-life at 1870 ng/L,"[4]; ground water in an aerated glass aquarium, no biota",37 h
same,Time that concentrations stay above ~ 180 ng/L in the water column,[4]; study not given,up to 2 days
same,Share of dose excreted as ritalinic acid,humans,up to 80%
same,Time of peak in plasma,human,1 to 4 h
same,Effect on anxiety behaviours,[5],Reductions in anxiety behaviours
same,Time of highest tissue concentration (first sampling point),[6],60 min
same,Time of highest tissue concentrations,[6],≤ 4 h
same,Start relative tissue concentration (Cb/Cw),[6]; 10 °C,1.2 ± 0.5 (0.7–2.1)
same,Start relative tissue concentration (Cb/Cw),[6]; 20 °C,0.5 ± 0.1 (0.4–0.7)
same,pKa,[7],9.5
same,Start relative tissue concentration (Cb/Cw),[8]; 10 °C,0.6
same,End relative tissue concentration (Cb/Cw),[8]; 10 °C,7.5 ± 3.2 (4.0–10.4)
same,Start relative tissue concentration (Cb/Cw),[8]; 20 °C,1.1
same,End relative tissue concentration (Cb/Cw),[8]; 20 °C,50.0
same,Time of peak tissue concentration,[8]; depending on temperature,~ 6 days and 5 to 7 days and 5–7 days
O=C1Nc2ccc(Cl)cc2C(c2ccccc2)=NC1O (stereo not drawn) [oxazepam],Bioconcentration in water louse compared to European perch (Perca fluviatilis),water louse,higher levels
"O=C(O)C(c1ccccc1)C1CCCCN1 (stereo not drawn) [ritalinic acid, α-phenyl-2-piperidine acetic acid]",Formation time of ritalinic acid in water,[3]; 10 °C,62 h
same,"Water concentration, measured end",[3]; 10 °C,202 ± 12 ng/L
same,"Water concentration, measured start",[3]; 10 °C,11 ± 10 ng/L
same,Formation time of ritalinic acid in water,[3]; 20 °C,65 h
same,"Water concentration, measured end",[3]; 20 °C,231 ± 12 ng/L
same,"Water concentration, measured start",[3]; 20 °C,8 ± 2 ng/L
same,Time after which ritalinic acid concentration surpasses methylphenidate in water,"[3]; water with biota, depending on temperature",48 to 100 h
same,Formation time of ritalinic acid in water,"[4]; 20 °C, static water only",79 h
same,"Water concentration, measured end","[4]; 20 °C, static water only",1606 ng/L
same,"Water concentration, measured start","[4]; 20 °C, static water only",387 ng/L
same,Time after which ritalinic acid concentration surpasses methylphenidate in water,"[4]; water without biota, depending on temperature",48 to 100 h
